From patent US9546401B2, “Assays and methods for selecting a treatment regimen for a subject with depression” (The General Hospital Corporation, priority 2011, dated 2017)
Read-outs that look alike come from different tables or passages of the source. Marks after values point to notes of the source that are not given here.

Tested on: MDD patients carrying the indicated biomarkers
Conditions: for Effect on change in HAMD-28 score / Effect on change in HAMD-17 score: Pooled phases
Method: Folate levels are classified as either low (<=2.5 ng/ml) or normal; and homocysteine levels as either normal or elevated (>=[…]). The presence or absence of at least one […] allele for the MTHFR gene are entered as a dichotomous variable (present or absent). […] Using folate as an example predicator, the presence or absence of a low serum-folate level along with treatment assignment can be entered in a 2×2, factorial ANOVA, using depression improvement scores (baseline minus endpoint HAM-D-17 scores) as the dependant variable. […] Similar analyses (i.e. separate 2×2 ANOVA's) can be performed substituting the presence of low folate levels for the presence of other predictors as described herein. Similarly, the effect of other predictors can be indicated by the interaction term representing the potential modulating influence of those variables.
The efficacy effect is determined by measuring the mean change in the HAMD-17 score and HAMD-28 score by the end of Phase I and Phase II, as compared to the baseline.

[1] = BMI < 30 kg/m^2 and HNE-His < median
[2] = BMI < 30 kg/m^2 and SAM/SAH >= median
[3] = BMI >= 30 kg/m^2 and HNE-His >= median
[4] = BMI*treat (interaction of BMI with the treatment)
[5] = MTHFR 677 CC and BMI < 30 kg/m^2
[6] = MTHFR 677 CT or TT and BMI >= 30 kg/m^2
[7] = MTHFR 677 CT or TT and HNE-His >= median
[8] = MTR 2756 AA and BMI < 30 kg/m^2
[9] = MTR 2756 AA and HNE-His < median
[10] = MTR 2756 AA and MTRR 66 AA and SAM/SAH >= median
[11] = MTR 2756 AA and SAM/SAH >= median
[12] = MTR 2756 AG or GG and BMI >= 30 kg/m^2
[13] = MTR 2756 AG or GG and MTRR 66 AG or GG
[14] = MTR 2756 AG or GG and MTRR 66 AG or GG and HNE-His >= median
[15] = MTRR 66 AA and SAM/SAH >= median
[16] = MTRR 66 AG or GG and HNE-His >= median
[17] = SAM/SAH < median and HNE-His >= median
[18] = SAM/SAH >= median and HNE-His < median

CN1c2c(nc(N)[nH]c2=O)NC[C@@H]1CNc1ccc(C(=O)N[C@@H](CCC(=O)O)C(=O)O)cc1 [6(S)-5-MTHF, 6(S)-5-methyltetrahydrofolate]
Effect on change in HAMD-28 score (BMI < 25): −1.018
Effect on change in HAMD-17 score [1]: 4.738
Effect on change in HAMD-28 score [1]: 4.253
Effect on change in HAMD-17 score [2]: 2.583
Effect on change in HAMD-28 score [2]: 2.906
Effect on change in HAMD-17 score (BMI >= 30 kg/m^2): −4.600
Effect on change in HAMD-28 score (BMI >= 30 kg/m^2): −4.660
Effect on change in HAMD-17 score [3]: −5.420
Effect on change in HAMD-28 score [3]: −5.996
Effect on change in HAMD-17 score (BMI >= 30 kg/m^2 and SAM/SAH < median): −7.302
Effect on change in HAMD-28 score (BMI >= 30 kg/m^2 and SAM/SAH < median = 2.71 (plasma)): −7.572
Effect on change in HAMD-17 score [4]: −0.233
Effect on change in HAMD-28 score [4]: −0.270
Effect on change in HAMD-17 score [5]: 1.356
Effect on change in HAMD-28 score [5]: −0.234
Effect on change in HAMD-17 score (MTHFR 677 CC and HNE-His < median): −1.050
Effect on change in HAMD-28 score (MTHFR 677 CC and HNE-His < median = 3.28 (plasma)): −1.340
Effect on change in HAMD-17 score [6]: −8.090
Effect on change in HAMD-28 score [6]: −9.884
Effect on change in HAMD-17 score [7]: −9.446
Effect on change in HAMD-28 score [7]: −9.865
Effect on change in HAMD-17 score (MTR 2756 AA): −0.590
Effect on change in HAMD-28 score (MTR 2756 AA): −0.047
Effect on change in HAMD-17 score [8]: 3.196
Effect on change in HAMD-28 score [8]: 3.352
Effect on change in HAMD-17 score [9]: 1.319
Effect on change in HAMD-28 score [9]: 2.085
Effect on change in HAMD-17 score (MTR 2756 AA and MTRR 66 AA): −1.373
Effect on change in HAMD-28 score (MTR 2756 AA and MTRR 66 AA): −3.032
Effect on change in HAMD-17 score (MTR 2756 AA and MTRR 66 AA and HNE-His < median): 0.466
Effect on change in HAMD-28 score (MTR 2756 AA and MTRR 66 AA and HNE-His < median = 3.28 (plasma)): −2.221
Effect on change in HAMD-17 score [10]: −3.98*
Effect on change in HAMD-28 score [10]: −3.74*
Effect on change in HAMD-17 score [11]: 0.054
Effect on change in HAMD-28 score [11]: −0.071
Effect on change in HAMD-17 score [12]: −11.714
Effect on change in HAMD-28 score [12]: −14.433
Effect on change in HAMD-17 score (MTR 2756 AG or GG and HNE-His >= median): −8.072
Effect on change in HAMD-28 score (MTR 2756 AG or GG and HNE-His >= median = 3.28 (plasma)): −9.508
Effect on change in HAMD-17 score [13]: −6.976
Effect on change in HAMD-28 score [13]: −9.348
Effect on change in HAMD-17 score [14]: −7.942
Effect on change in HAMD-28 score [14]: −10.241
Effect on change in HAMD-17 score (MTR 2756 AG or GG and MTRR 66 AG or GG and SAM/SAH < median): −7.64*
Effect on change in HAMD-28 score (MTR 2756 AG or GG and MTRR 66 AG or GG and SAM/SAH < median = 2.71 (plasma)): −11.62*
Effect on change in HAMD-17 score (MTR 2756 AG or GG and SAM/SAH < median): −5.583
Effect on change in HAMD-28 score (MTR 2756 AG or GG and SAM/SAH < median = 2.71 (plasma)): −11.683
Effect on change in HAMD-17 score (MTR 2756 AG/GG): −5.677
Effect on change in HAMD-28 score (MTR 2756 AG/GG): −8.243
Effect on change in HAMD-17 score (MTRR 66 AA and HNE-His < median): 2.575
Effect on change in HAMD-28 score (MTRR 66 AA and HNE-His < median = 3.28 (plasma)): −2.626
Effect on change in HAMD-17 score [15]: −2.978
Effect on change in HAMD-28 score [15]: −1.221
Effect on change in HAMD-17 score [16]: −4.850
Effect on change in HAMD-28 score [16]: −6.582
Effect on change in HAMD-17 score (MTRR 66 AG or GG and SAM/SAH < median): −5.879
Effect on change in HAMD-28 score (MTRR 66 AG or GG and SAM/SAH < median = 2.71 (plasma)): −6.579
Effect on change in HAMD-17 score [17]: −9.898
Effect on change in HAMD-28 score [17]: −9.500
Effect on change in HAMD-17 score [18]: 2.107
Effect on change in HAMD-28 score [18]: 2.413
Effect on change in HAMD-28 score (SAM/SAH*treat, first line under HAMD28): 0.882
Effect on change in HAMD-17 score (baseHAMD-17*treat (interaction of base HAMD-17 with the treatment)): −0.025
improvement in HDRS-28 or CGI-S (at least one T allele (CT or TT) at MTHFR 677 versus no T allele, + SSRI): greater degree of improvement
improvement in HAMD-28 or CGI-S (obese (BMI at least 30 kg/m^2) versus non-obese patients, + SSRI): greater degree of improvement
mean change in HAMD-28 (patients carrying at least one G variant in the MTR gene only): about −8.2
mean change in HAMD-28 (patients carrying both MTHFR T and MTR G variants): about −23.3
